The results in this text go back to paper PMC6147803 (Acta Pharmaceutica Sinica. B, 2018).

SMILES strings stand for the structures.

This test addresses T1, PTP1B (Homo sapiens, UniProt P18031).
T1 sequence (P18031 1-435): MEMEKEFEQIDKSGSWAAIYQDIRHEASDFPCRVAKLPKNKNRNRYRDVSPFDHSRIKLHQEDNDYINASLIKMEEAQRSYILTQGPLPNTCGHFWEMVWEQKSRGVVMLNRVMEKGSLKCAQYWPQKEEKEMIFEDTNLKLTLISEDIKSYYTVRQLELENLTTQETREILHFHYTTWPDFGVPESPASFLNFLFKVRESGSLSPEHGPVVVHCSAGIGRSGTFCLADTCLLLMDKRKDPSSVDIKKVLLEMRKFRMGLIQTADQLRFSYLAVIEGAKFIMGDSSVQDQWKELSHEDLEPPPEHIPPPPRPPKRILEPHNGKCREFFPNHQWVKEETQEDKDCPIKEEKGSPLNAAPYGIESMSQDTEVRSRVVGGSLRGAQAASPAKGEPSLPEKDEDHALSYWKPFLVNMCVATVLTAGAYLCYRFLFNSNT
Description: p-NPP dephosphorylation end-point assay at […] nm, […] compound. It counts as biochemical. To be noted: read-out: % inhibition at 10 μmol/L.

In the case of `COc1c(O)ccc(/C=C/C(=O)O)c1SC[C@@H](O)C(=O)O` [compound 1, (S)-2-(2-carboxyl-2-hydroxyethylthio)-ferulic acid], the inhibition at 10 µM is 19.6%.
